Laboratory results: patent US6291231A, “Microorganism producing terphenyl compounds” (Shionogi & Co., Ltd., priority 1996, dated 2001)
≈ marks a conversion by molar mass, not a printed value.

Columns and labels:
[1] = system: Lu-99 human large cell lung cancer; assay: Cell proliferation inhibition (MTT), Lu-99; assay type: cell-based
Protocol: (§1) To each well of a 96 well microtiter plate, the pre-determined number of various cell strains (0.1 ml) were added and pre-cultivated for a day under the same cultivation conditions as Experiment 1. To each well, 0.1 ml of the compound (I-1) was added so that the concentration was in the range of 0-10,000 ng/ml. After the cultivation for 3-4 days, 25 μl of 6 mg/ml MTT [3-(4,5-dimethylthiazol-2-yl)-2,5-diphenyltetrazolium bromide] (Sigma) solution was added to each well and the cells were cultivated at 37° C. for 4 hours under the same conditions as above. After the cultivation, 50 μl of 0.02 N hydrochloric acid solution of 20% sodium dodecyl sulfate was added to formazan generated and left at 37° C. for 24 hours for dissolving formazan. An absorption intensity (OD) of formazan generated in proportion to the number of living cells was measured with an immunoreader (InterMed) equipped with a 570 nm filter (The Journal of Immunological Method, No.65, p.55-63, 1983). The 50% inhibitory concentration of a cell proliferation (IC 50) was calculated from a correlation between a concentration of the compound (I-1) and absorption intensity.

BDF1 mouse splenocytes [2] = assay: Suppression of the lipopolysaccharide (LPS) reaction of mouse splenocytes, 3H-thymidine uptake; assay type: cell-based; details: for Radioactivity cpm ± SD: 3H-thymidine
Protocol: To each well of a 96 well microtiter plate were added 5×10^5 BDF1 mouse splenocytes suspended in 0.1 ml of 10% fetal calf serum-fortifed RPMI 1640 medium (2 mM of sodium bicarbonate, 50 units/ml of penicillin, 50 μg/ml of streptomycin and 5×10^-5 M of 2-mercaptethanol were added) were added. To each well, 5 μg/ml of Con A as a mitogen and the compound (I-1), (I-2) or (I-3) of a pre-determined concentration were added so that a final volume of each well reached 0.2 ml. […] The splenocytes in the 96 well microtiter plate were cultivated at 37° C. for 48 hours in an incubator keeping the humidity 100%, carbon dioxide 5% and air 95%. The cells were pulse-labeledwith 3H-thymidine (18.5 Kbq/well) before 6 hours of harvest. After the cultivation, the cells were collected by a cell harvester and radioactivity taken in the cells was measured for being used as an indicator of a cell proliferation activity. Con A-free (--Con A) medium was used as a control.
By the same method as described in above 1-1 except that lipopolysaccharide (LPS, 10 μg/ml) was used in spite of concanavalin A, a suppression of the reaction was examined. LPS-free (--LPS) medium was used as a control.

[3] = system: CCFR-CEM human leukemia cell; assay: Cell proliferation inhibition (MTT), CCFR-CEM; assay type: cell-based
Protocol: as §1

P388 mouse leukemia cell = assay: Cell proliferation inhibition (MTT), P388; assay type: cell-based
Protocol: as §1

BDF1 mouse splenocytes [4] = assay: Suppression of the concanavalin A (Con A) mitogen reaction of mouse splenocytes, 3H-thymidine uptake; assay type: cell-based; set-up: Radioactivity cpm ± SD: dose or concentration left out as unconfirmed
BDF1 mouse splenocytes [5] = assay: as above; assay type: cell-based; details: for Radioactivity cpm ± SD: 3H-thymidine
Protocol: To each well of a 96 well microtiter plate were added 5×10^5 BDF1 mouse splenocytes suspended in 0.1 ml of 10% fetal calf serum-fortifed RPMI 1640 medium (2 mM of sodium bicarbonate, 50 units/ml of penicillin, 50 μg/ml of streptomycin and 5×10^-5 M of 2-mercaptethanol were added) were added. To each well, 5 μg/ml of Con A as a mitogen and the compound (I-1), (I-2) or (I-3) of a pre-determined concentration were added so that a final volume of each well reached 0.2 ml. Each compound of the present invention was dissolved in dimethylsulfoxide (DMSO) and diluted with the above RPMI 1640 medium to adjust the final concentration to 100 ng/ml or less. The splenocytes in the 96 well microtiter plate were cultivated at 37° C. for 48 hours in an incubator keeping the humidity 100%, carbon dioxide 5% and air 95%. The cells were pulse-labeledwith 3H-thymidine (18.5 Kbq/well) before 6 hours of harvest. After the cultivation, the cells were collected by a cell harvester and radioactivity taken in the cells was measured for being used as an indicator of a cell proliferation activity. Con A-free (--Con A) medium was used as a control.

[6] = system: CCD-19Lu human normal pneumocyte; assay: Cell proliferation inhibition (MTT), CCD-19Lu; assay type: cell-based
Protocol: as §1

[7] = Solubility (characterisation data); assay type: physicochemical

With `COc1cc(-c2ccc(O)cc2)c(OC)c(O)c1-c1ccc(OCC=C(C)C)c(O)c1` [Compound I-1, 3',6'-dimethoxy-4-(3-methyl-2-butenyloxy) -[1,1':4',1"] terphenyl-3,2',4"-triol] the IC50 ([1]; Homo sapiens, Lu-99, RPMI 1640, 2 × 10^3 cells/well, MTT, 3-4 days, read-out: IC50 (ng/ml) of cell proliferation) was 1 ng/mL (≈ 2.37 nM), the “Antiproliferative activity (in words)” value ([1]; tumor cells (Lu-99)) was “has an antiproliferative activity on the tumor cells” and the “Radioactivity cpm ± SD” value (BDF1 mouse splenocytes [2]; LPS 10 μg/ml, compound 0.98 ng/ml) was 153396 ± 6123 cpm. The “Radioactivity cpm ± SD” value (BDF1 mouse splenocytes [2]; LPS 10 μg/ml, compound 3.91 ng/ml) was 88405 ± 10394 cpm, the “Radioactivity cpm ± SD” value (BDF1 mouse splenocytes [2]; LPS 10 μg/ml, compound 15.6 ng/ml) was 32548 ± 315 cpm and the “Radioactivity cpm ± SD” value (BDF1 mouse splenocytes [2]; LPS 10 μg/ml, compound 62.5 ng/ml) was 16070 ± 944 cpm. For the same compound, the “Radioactivity cpm ± SD” value (BDF1 mouse splenocytes [2]; LPS 10 μg/ml, compound 250.0 ng/ml) was 15046 ± 344 cpm, the inhibition at 0.00098 µg/mL (BDF1 mouse splenocytes [2]; Mus musculus, Splenocyte, 48 h, LPS 10 μg/ml, compound 0.98 ng/ml) was 0.3% and the inhibition at 0.00391 µg/mL (BDF1 mouse splenocytes [2]; Mus musculus, Splenocyte, 48 h, LPS 10 μg/ml, compound 3.91 ng/ml) was 43.4%. For the same compound, the inhibition at 0.0156 µg/mL (BDF1 mouse splenocytes [2]; Mus musculus, Splenocyte, 48 h, LPS 10 μg/ml, compound 15.6 ng/ml) was 80.4%, the inhibition at 0.0625 µg/mL (BDF1 mouse splenocytes [2]; Mus musculus, Splenocyte, 48 h, LPS 10 μg/ml, compound 62.5 ng/ml) was 91.3% and the inhibition at 0.25 µg/mL (BDF1 mouse splenocytes [2]; Mus musculus, Splenocyte, 48 h, LPS 10 μg/ml, compound 250.0 ng/ml) was 92%. The IC50 (BDF1 mouse splenocytes [2]; Splenocyte, LPS reaction of mouse splenocytes) was 4.5 ng/mL (≈ 10.7 nM), the “Suppressive effect on the LPS reaction of mouse splenocytes (in words)” value (BDF1 mouse splenocytes [2]; depends on the compound concentration) was “potent suppressive effect” and the IC50 ([3]; Homo sapiens, CCFR-CEM, RPMI 1640, 5 × 10^3 cells/well, MTT, 3-4 days, read-out: IC50 (ng/ml) of cell proliferation) was 0.2 ng/mL (≈ 0.473 nM). For the same compound, the “Antiproliferative activity (in words)” value ([3]; tumor cells (CCFR-CEM)) was “has an antiproliferative activity on the tumor cells”, the IC50 (P388 mouse leukemia cell; Mus musculus, P388, RPMI 1640, 5 × 10^2 cells/well, MTT, 3-4 days, read-out: IC50 (ng/ml) of cell proliferation) was 12 ng/mL (≈ 28.4 nM) and the “Antiproliferative activity (in words)” value (P388 mouse leukemia cell; tumor cells (P388)) was “has an antiproliferative activity on the tumor cells”. The “Radioactivity cpm ± SD” value (BDF1 mouse splenocytes [4]) was 6404 ± 403 cpm, the inhibition at 0.25 µg/mL (BDF1 mouse splenocytes [4]; Mus musculus, Splenocyte, 48 h, Con A 5 μg/ml, compound 250.0 ng/ml) was 98.9% and the “Radioactivity cpm ± SD” value (BDF1 mouse splenocytes [5]; Con A 5 μg/ml, compound 0.25 ng/ml, 48 h) was 292470 ± 542 cpm. The “Radioactivity cpm ± SD” value (BDF1 mouse splenocytes [5]; Con A 5 μg/ml, compound 0.98 ng/ml, 48 h) was 210046 ± 3288 cpm, the “Radioactivity cpm ± SD” value (BDF1 mouse splenocytes [5]; Con A 5 μg/ml, compound 3.91 ng/ml, 48 h) was 56871 ± 1554 cpm and the “Radioactivity cpm ± SD” value (BDF1 mouse splenocytes [5]; Con A 5 μg/ml, compound 15.6 ng/ml, 48 h) was 11366 ± 372 cpm. For the same compound, the “Radioactivity cpm ± SD” value (BDF1 mouse splenocytes [5]; Con A 5 μg/ml, compound 62.5 ng/ml, 48 h) was 6411 ± 246 cpm, the inhibition at 0.00025 µg/mL (BDF1 mouse splenocytes [5]; Mus musculus, Splenocyte, 48 h, Con A 5 μg/ml, compound 0.25 ng/ml) was -5.6% and the inhibition at 0.00098 µg/mL (BDF1 mouse splenocytes [5]; Mus musculus, Splenocyte, 48 h, Con A 5 μg/ml, compound 0.98 ng/ml) was 24.5%. For the same compound, the inhibition at 0.00391 µg/mL (BDF1 mouse splenocytes [5]; Mus musculus, Splenocyte, 48 h, Con A 5 μg/ml, compound 3.91 ng/ml) was 80.5%, the inhibition at 0.0156 µg/mL (BDF1 mouse splenocytes [5]; Mus musculus, Splenocyte, 48 h, Con A 5 μg/ml, compound 15.6 ng/ml) was 97.1% and the inhibition at 0.0625 µg/mL (BDF1 mouse splenocytes [5]; Mus musculus, Splenocyte, 48 h, Con A 5 μg/ml, compound 62.5 ng/ml) was 98.9%. For the same compound, the IC50 (BDF1 mouse splenocytes [5]; Splenocyte, Con A reaction of mouse splenocytes) was 1.2 ng/mL (≈ 2.84 nM), the “Suppression of the Con A reaction of mouse splenocytes (in words)” value (BDF1 mouse splenocytes [5]; depending on the compound concentration) was “significantly suppressed” and the IC50 ([6]; Homo sapiens, CCD-19Lu, MEM, 2 × 10^4 cells/well, MTT, 3-4 days, read-out: IC50 (ng/ml) of cell proliferation) was over 10000 ng/mL. The “Antiproliferative activity (in words)” value ([6]; normal pneumocyte CCD-19Lu) was “not on the normal pneumocyte CCD-19Lu”, the “Solubility in acetone, ethyl acetate and chloroform” value ([7]; acetone, ethyl acetate, chloroform) was “soluble” and the Solubility in water ([7]; water) was “insoluble”.
